{"source": "paper PMC10951960", "about": "“CGP7930 - An allosteric modulator of GABABRs, GABAARs and inwardly-rectifying potassium channels” (Neuropharmacology, 2023)", "key": {"[1]": {"system": "GABAAR-mediated tonic inhibition in hippocampal neurons", "test": "tonic inhibition: baseline holding current and RMS noise in cultured hippocampal neurons", "type": "cell-based, rat", "details": "Control to Bic (50 μM bicuculline)", "protocol": "(§1) Briefly, single cells derived from dissected hippocampi were seeded onto glass coverslips coated with poly-D-lysine in a plating medium containing minimum essential media with 5% v/v heat-inactivated FCS, 5% v/v heat-inactivated horse serum, penicillin-G/streptomycin (100 U/100 μg/ml), 2 mM L-glutamine, and 20 mM glucose. Two hr after plating the media was changed to a Neurobasal-A based maintenance media supplemented with 1% v/v B-27, penicillin-G/streptomycin (100 U/100 μg/ml), 0.5% v/v Glutamax and 35 mM glucose.\n(§2) Spontaneous inhibitory postsynaptic currents (sIPSCs) were recorded from cultured hippocampal neurons at 12–17 days in vitro (DIV). […] For recording K^+ currents in GIRK cells and neurons, the bath solution was switched to a high K^+ solution containing 25 mM KCl and reduced NaCl (120 mM), to shift the equilibrium potential for K^+ from approximately −90 to −47 mV, thus reversing the direction of K^+ current flux to net inward. GABABR-activated K^+ currents in cultured neurons were recorded in the additional presence of 2 mM kynurenic acid and 20 μM picrotoxin.\n(§3) Borosilicate glass electrodes (3–5 MΩ) were filled with a K^+-based internal solution for recording GIRK currents containing (mM): 120 KCl, 2 MgCl2, 11 EGTA, 30 KOH, 10 HEPES, 1 CaCl2, 1 GTP, 2 ATP, 14 creatine phosphate, pH 7.0. GABAAR currents and sIPSCs were recorded with a Cs-based internal solution containing (mM): 120 CsCl, 1 MgCl2, 11 EGTA, 30 KOH, 10 HEPES, 1 CaCl2, and 2 K2ATP; pH 7.2. […] Cells were held at −60 mV (sIPSCs) or −60/−70 mV (K^+ currents). Voltage clamp recordings were undertaken after optimising series resistance (Rs, <10 MΩ) and compensating for the whole-cell membrane capacitance. Membrane currents were filtered at 5 kHz (−3 dB, 6th pole Bessel, 36 dB/octave) and stored for analysis with Clampex 10.\nFor tonic inhibition, to determine the average holding currents, a 30 s continuous holding current recording was sampled every 1 s, discarding epochs that coincided with sIPSCs. Any effect of CGP7930 or bicuculline on the holding current was defined by subtracting the average holding currents in control and during drug application. The baseline root-mean-square current variance (RMS) was calculated before and during drug treatment. This was estimated from a continuous (20 s) current recording, sampled every 100 ms. The median current was calculated every 5 s and values more than twice the standard deviation from the median (usually due to IPSCs) were eliminated. All drugs were applied using a U-tube rapid drug application system, or more slowly via bath perfusion.\nWe assessed the effect of CGP7930 on tonic inhibition in hippocampal cultured neurons."}, "[2]": {"system": "GABAARs in hippocampal neurons", "test": "slow inward current directly activated by CGP7930 in hippocampal neurons in high K+ external solution and its block by GABAAR antagonists", "type": "cell-based, rat", "details": "antagonist 100 μM, P < 0.001", "protocol": "as §2\nCGP7930 modulation at neuronal GABABRs was also characterised using baclofen-activated GIRK currents in hippocampal cultures similarly bathed in a high external K^+ concentration."}, "GABABR": {"target": "T1, GABABR (Rattus norvegicus, UniProt O88871+Q9Z0U4)", "T1 construct": "endogenous in cells; host or cells: cultured rat (E18 Sprague-Dawley) hippocampal neurons, 12-17 DIV", "T1 sequence (Q9Z0U4 17-960 limits assumed)": "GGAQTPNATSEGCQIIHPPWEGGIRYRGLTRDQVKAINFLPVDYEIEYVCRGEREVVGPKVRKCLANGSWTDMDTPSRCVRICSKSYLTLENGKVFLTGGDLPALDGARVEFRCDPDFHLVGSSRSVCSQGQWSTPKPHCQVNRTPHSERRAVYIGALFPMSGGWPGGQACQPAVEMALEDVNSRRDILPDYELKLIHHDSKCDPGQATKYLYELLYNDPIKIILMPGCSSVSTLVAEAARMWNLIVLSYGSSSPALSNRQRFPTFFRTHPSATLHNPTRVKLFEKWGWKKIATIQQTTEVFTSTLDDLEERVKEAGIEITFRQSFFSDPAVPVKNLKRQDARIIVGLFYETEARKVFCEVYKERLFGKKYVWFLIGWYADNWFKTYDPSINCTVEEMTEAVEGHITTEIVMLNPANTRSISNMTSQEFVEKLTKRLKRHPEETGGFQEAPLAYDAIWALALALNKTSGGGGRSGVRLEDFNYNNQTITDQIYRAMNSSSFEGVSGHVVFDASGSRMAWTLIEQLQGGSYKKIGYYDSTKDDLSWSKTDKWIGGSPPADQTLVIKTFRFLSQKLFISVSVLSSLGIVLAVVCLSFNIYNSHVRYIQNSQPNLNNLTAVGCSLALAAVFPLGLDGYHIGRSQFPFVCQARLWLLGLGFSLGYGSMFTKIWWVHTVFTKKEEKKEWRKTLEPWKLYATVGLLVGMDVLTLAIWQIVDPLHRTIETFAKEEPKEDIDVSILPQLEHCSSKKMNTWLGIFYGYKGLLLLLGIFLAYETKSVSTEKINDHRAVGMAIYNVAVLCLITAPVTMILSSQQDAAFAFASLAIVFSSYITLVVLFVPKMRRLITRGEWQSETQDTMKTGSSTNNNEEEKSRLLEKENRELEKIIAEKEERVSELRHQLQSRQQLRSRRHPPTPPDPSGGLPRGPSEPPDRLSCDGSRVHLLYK", "T1 sequence (O88871 41-940)": "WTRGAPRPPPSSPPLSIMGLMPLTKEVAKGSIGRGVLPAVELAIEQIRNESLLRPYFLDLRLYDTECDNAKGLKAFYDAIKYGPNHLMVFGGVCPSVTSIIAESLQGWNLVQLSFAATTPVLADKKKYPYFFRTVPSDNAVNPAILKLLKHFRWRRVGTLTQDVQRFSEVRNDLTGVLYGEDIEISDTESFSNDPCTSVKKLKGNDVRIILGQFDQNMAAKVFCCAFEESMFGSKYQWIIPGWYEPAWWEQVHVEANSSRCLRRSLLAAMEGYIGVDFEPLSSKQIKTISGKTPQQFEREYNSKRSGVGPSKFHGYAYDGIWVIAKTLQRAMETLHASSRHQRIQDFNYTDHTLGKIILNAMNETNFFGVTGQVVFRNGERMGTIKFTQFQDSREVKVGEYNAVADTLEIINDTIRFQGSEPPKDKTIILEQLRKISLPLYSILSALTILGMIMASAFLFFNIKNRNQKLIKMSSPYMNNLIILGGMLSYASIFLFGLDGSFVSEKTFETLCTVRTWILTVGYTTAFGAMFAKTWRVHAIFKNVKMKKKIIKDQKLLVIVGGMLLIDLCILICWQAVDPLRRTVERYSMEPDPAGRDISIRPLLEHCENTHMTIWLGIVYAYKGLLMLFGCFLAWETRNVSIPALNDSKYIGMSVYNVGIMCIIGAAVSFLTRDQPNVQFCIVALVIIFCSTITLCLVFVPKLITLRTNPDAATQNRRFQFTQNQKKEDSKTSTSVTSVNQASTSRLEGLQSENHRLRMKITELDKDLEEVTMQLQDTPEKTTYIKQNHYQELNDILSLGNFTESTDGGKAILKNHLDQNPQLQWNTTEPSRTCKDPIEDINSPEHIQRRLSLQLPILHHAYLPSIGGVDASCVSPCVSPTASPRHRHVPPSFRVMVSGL", "test": "GABABR antagonism by CGP55845 in hippocampal whole-cell recording", "type": "cell-based", "details": "n = 6, data not shown; read-out: IC50 of GABABR antagonist under our recording conditions"}, "[3]": {"system": "native GABAARs in hippocampal neurons", "test": "muscimol-activated and CGP7930-activated GABAAR currents in hippocampal neurons, Cs+-based internal solution", "type": "cell-based, rat", "details": "read-out: muscimol EC50; hippocampal neurons, n = 9", "protocol": "as §1, §2, §3\nConcentration-response curves were generated by measuring the current (I) for each ligand concentration and normalising to the maximal current response (Imax)."}}, "data": [{"compound": "CN1CCc2cc3c(cc2[C@H]1[C@@H]1OC(=O)c2c1ccc1c2OCO1)OCO3", "note": "[bicuculline]", "values": [{"measurement": "Tonic currents (change in baseline holding current)", "setting": "[1]", "value": "38.02 ± 7.43 (6) pA"}, {"measurement": "effect on the slow inward current caused by > 3 μM CGP7930", "setting": "[2]", "value": "abolished"}]}, {"compound": "C[C@H](NC[C@H](O)CP(=O)(O)Cc1ccccc1)c1ccc(Cl)c(Cl)c1", "note": "[CGP55845]", "values": [{"measurement": "IC50", "setting": "GABABR", "value": "10 ± 0.7", "unit": "nM"}]}, {"compound": "picrotoxin", "values": [{"measurement": "effect on the slow inward current caused by > 3 μM CGP7930", "setting": "[2]", "value": "abolished"}]}, {"compound": "NCc1cc(=O)[nH]o1", "note": "[muscimol]", "values": [{"measurement": "EC50", "setting": "[3]", "value": "2700 ± 100", "unit": "nM"}]}]}
